According to US9309242B2, “Substituted pyrido[2,3-b]pyrazines as FGFR kinase inhibitors” (priority 2011, dated 2016):
Where a name gives a salt, the structure may show the parent alone.

Legend:
[1] = target: T1, Ba/F3-FGFR3-transfected cells (Homo sapiens, UniProt P22607); assay: Ba/F3-FGFR3 (minus IL3) cellular proliferation assay, Alamar Blue; format: cell-based
T1 construct: BAF3-FGFR3 (MIN IL3) pIC50; other: minus IL3
How it was run: (§1)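 Ba/F3 cells transfected with FGFR3, 20000/well in phenol red-free RPMI-1640 with 10% FBS, exposed to compound for 24 h at 37 °C, 5% CO2. Alamar Blue (resazurin) added for 4 h more; fluorescence read at ex 540/em 590 nm. Counterscreen run the same way with 10 ng/ml murine IL3.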

[2] = system: Ba/F3-FGFR3-transfected cells; assay: Ba/F3-FGFR3 (plus IL3) cellular proliferation assay, counterscreen with 10 ng/ml murine IL3; format: cell-based; details: plus IL3 (10 ng/ml murine IL3, counterscreen)
How it was run: as §1

[3] = target: T2, Ba/F3-FGFR1-transfected cells (Homo sapiens, UniProt P11362); assay: Ba/F3-FGFR1 (minus IL3) cellular proliferation assay, Alamar Blue; format: cell-based
T2 construct: BAF3-FGFR1 (MIN IL3) pIC50; other: minus IL3
How it was run: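 Ba/F3-FGFR1 cells (20000 per well) were exposed to compound for 24 h at 37 °C in RPMI-1640 with 10% FBS. Alamar Blue (resazurin) was then added for 4 h, and fluorescence was read at ex 540/em 590 nm.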

FGFR3 (h) = FGFR3 (h) (Homo sapiens, UniProt P22607); assay: FGFR3 (enzymatic assay), TR-FRET; format: biochemical; details: average values if tested multiple times, read-out: FGFR 3 pIC50 (converted)
Excerpt: Time-Resolved Fluorescence Resonance Energy Transfer (TR-FRET) signal (ex340 nm.

[4] = target: T3, Ba/F3-KDR-transfected cells (Homo sapiens, UniProt P35968); assay: Ba/F3-KDR (minus IL3) cellular proliferation assay, Alamar Blue; format: cell-based
T3 construct: BAF3-KDR (MIN IL3) pIC50; other: minus IL3
T3 sequence (P35968 whole entry, change not shown): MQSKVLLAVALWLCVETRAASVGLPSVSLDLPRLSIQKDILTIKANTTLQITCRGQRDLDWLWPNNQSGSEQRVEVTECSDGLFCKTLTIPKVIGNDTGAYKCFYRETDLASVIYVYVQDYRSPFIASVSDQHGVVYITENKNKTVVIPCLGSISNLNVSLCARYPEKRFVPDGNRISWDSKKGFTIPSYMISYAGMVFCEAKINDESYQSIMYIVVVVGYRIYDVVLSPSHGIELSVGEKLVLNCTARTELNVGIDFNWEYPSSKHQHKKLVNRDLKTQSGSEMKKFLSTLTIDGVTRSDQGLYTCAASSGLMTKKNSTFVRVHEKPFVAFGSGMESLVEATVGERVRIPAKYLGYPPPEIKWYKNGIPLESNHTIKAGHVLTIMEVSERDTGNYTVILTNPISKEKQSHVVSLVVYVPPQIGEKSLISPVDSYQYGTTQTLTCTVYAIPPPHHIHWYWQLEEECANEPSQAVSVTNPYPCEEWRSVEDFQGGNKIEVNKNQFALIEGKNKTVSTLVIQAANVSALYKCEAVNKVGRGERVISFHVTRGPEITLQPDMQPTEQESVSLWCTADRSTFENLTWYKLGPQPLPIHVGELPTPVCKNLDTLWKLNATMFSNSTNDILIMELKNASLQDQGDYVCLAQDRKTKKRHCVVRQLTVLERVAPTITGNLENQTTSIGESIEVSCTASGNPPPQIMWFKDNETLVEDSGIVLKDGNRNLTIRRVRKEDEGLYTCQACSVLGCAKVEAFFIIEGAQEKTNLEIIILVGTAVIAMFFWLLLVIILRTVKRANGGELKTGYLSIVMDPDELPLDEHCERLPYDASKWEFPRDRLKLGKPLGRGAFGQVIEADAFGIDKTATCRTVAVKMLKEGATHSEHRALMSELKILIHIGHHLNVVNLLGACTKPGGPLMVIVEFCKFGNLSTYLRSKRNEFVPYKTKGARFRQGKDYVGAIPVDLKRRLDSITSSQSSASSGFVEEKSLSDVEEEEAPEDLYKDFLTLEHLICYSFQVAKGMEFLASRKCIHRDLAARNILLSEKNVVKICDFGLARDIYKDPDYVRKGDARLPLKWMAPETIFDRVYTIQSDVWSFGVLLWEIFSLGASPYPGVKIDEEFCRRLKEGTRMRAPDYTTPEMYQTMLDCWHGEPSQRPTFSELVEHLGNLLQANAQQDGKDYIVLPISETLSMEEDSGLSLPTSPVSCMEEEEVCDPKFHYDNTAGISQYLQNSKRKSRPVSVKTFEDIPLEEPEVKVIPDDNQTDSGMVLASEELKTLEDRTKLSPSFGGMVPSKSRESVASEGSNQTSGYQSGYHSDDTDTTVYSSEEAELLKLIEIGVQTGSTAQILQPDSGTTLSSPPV
How it was run: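 Proliferation is measured as Alamar Blue relative fluorescence units following 24 h compound treatment of 20000 cells per well in 10% FBS medium. The IL3-supplemented run serves as a counterscreen under the same conditions.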

FGFR4 (h) = FGFR4 (h) (Homo sapiens, UniProt P22455); assay: FGFR4 (enzymatic assay), TR-FRET; format: biochemical; details: FGFR 4 pIC50, enzymatic assay; average values if tested multiple times
[5] = system: Ba/F3-KDR-transfected cells; assay: Ba/F3-KDR (plus IL3) cellular proliferation assay, counterscreen with 10 ng/ml murine IL3; format: cell-based; details: plus IL3 (10 ng/ml murine IL3, counterscreen)
Description: Ba/F3-KDR (Minus IL3 or Plus IL3) (Cellular Proliferation Assay)
In a 384 well plate, 100 n1 of compound dilution in DMSO was sprayed before adding 50 μl cell culture medium (phenol red free RPMI-1640, 10% FBS, 2 mM L-Glutamine and 50 μg/ml Gentamycin) containing 20000 cells per well of Ba/F3-KDR-transfected cells. Cells were put in an incubator at 37° C. and 5% CO2. After 24 hours, 10 μl of Alamar Blue solution (0.5 mM K3Fe(CN)6, 0.5 mM K4Fe(CN)6, 0.15 mM Resazurin and 100 mM Phosphate Buffer) was added to the wells, incubated for 4 hours at 37° C. and 5% CO2 before RFU's (Relative Fluorescence Units) (ex. 540 nm., em. 590 nm.) were measured in a fluororescence plate reader.
As a counterscreen the same experiment was performed in the presence of 10 ng/ml murine IL3.

[6] = target: Ba/F3-FGFR4-transfected cells (Homo sapiens, UniProt P22455); assay: Ba/F3-FGFR4 cellular proliferation assay, Alamar Blue; format: cell-based
Sequence of Ba/F3-FGFR4-transfected cells (P22455 whole entry, change not shown): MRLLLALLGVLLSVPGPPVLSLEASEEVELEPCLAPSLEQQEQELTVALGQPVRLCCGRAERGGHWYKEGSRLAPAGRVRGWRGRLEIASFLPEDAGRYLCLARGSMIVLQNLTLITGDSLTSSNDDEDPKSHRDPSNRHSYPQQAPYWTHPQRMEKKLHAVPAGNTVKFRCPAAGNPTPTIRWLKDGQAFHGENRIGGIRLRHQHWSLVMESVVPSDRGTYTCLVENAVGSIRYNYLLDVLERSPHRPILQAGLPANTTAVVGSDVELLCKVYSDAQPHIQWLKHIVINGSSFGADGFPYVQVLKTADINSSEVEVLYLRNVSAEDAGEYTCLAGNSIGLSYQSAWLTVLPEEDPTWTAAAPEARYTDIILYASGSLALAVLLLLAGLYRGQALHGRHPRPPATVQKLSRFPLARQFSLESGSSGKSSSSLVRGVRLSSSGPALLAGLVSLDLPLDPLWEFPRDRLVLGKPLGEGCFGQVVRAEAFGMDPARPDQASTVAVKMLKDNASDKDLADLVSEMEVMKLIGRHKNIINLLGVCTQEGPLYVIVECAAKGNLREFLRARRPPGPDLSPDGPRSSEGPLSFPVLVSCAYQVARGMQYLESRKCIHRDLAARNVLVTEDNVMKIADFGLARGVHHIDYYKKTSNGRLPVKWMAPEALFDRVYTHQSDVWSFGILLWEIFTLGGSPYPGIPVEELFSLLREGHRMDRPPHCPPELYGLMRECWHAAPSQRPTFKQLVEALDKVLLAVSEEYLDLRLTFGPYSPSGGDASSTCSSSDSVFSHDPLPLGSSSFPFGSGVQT
How it was run: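 Proliferation of Ba/F3-FGFR4-transfected cells is gauged by Alamar Blue (resazurin) fluorescence after 24 hours of compound treatment in phenol red free RPMI-1640 with 10% FBS.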

KDR (h) = KDR (h) (Homo sapiens, UniProt P35968); assay: KDR (VEGFR2) (enzymatic assay), TR-FRET; format: biochemical; details: average values if tested multiple times, read-out: VEGFR 2 (KDR) pIC50 (converted)
How it was run: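 First, kinase (150 ng/ml), Btn-Flt3 (500 nM), ATP (3 μM) and compound (1% DMSO) react 120 min at RT in pH 7.5 HEPES/6 mM MnCl2. Next, EDTA with Eu-anti-P-Tyr and SA-XL-665 stops it for 60 min. Finally, TR-FRET is read as RFU.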

FGFR1 (h) = FGFR1 (h) (Homo sapiens, UniProt P11362); assay: FGFR1 (enzymatic assay), TR-FRET; format: biochemical; details: average values if tested multiple times, read-out: FGFR 1 pIC50 (converted)
Sequence of FGFR1 (h) (P11362 22-822): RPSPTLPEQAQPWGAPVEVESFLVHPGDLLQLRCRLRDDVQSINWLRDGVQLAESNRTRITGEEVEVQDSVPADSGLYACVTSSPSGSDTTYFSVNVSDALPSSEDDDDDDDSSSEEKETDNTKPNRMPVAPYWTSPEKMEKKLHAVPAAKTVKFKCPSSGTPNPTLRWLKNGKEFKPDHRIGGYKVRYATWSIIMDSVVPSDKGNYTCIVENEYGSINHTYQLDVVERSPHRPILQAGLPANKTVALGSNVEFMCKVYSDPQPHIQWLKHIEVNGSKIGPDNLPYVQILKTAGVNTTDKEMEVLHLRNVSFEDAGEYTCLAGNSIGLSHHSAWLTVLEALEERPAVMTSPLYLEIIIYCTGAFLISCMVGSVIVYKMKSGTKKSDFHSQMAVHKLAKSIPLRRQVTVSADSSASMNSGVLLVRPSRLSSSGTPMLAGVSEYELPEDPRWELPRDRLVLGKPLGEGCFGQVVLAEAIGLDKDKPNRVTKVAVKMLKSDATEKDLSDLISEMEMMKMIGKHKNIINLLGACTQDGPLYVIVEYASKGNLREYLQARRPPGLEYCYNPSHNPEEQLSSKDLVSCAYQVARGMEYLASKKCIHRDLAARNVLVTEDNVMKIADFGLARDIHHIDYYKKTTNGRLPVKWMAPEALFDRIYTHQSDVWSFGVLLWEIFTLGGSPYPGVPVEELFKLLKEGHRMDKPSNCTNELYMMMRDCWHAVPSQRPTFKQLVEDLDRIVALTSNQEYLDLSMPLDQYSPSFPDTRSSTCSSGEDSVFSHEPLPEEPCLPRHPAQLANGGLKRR

[7] = system: Ba/F3-FGFR1-transfected cells; assay: Ba/F3-FGFR1 (plus IL3) cellular proliferation assay, counterscreen with 10 ng/ml murine IL3; format: cell-based; details: plus IL3 (10 ng/ml murine IL3, counterscreen)
How it was run: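 Ba/F3-FGFR1 cells (20000/well) in RPMI-1640 with 10% FBS exposed to compound for 24 h at 37° C., 5% CO2, then Alamar Blue (resazurin) added for 4 h; fluorescence read at ex 540/em 590 nm. Counterscreen run identically with 10 ng/ml murine IL3.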

FGFR2 (h) = FGFR2 (h) (Homo sapiens, UniProt P21802); assay: FGFR2 (enzymatic assay), TR-FRET; format: biochemical; details: enzymatic assay; average values if tested multiple times; read-out: FGFR 2 pIC50 (converted)
Sequence of FGFR2 (h) (P21802 22-821): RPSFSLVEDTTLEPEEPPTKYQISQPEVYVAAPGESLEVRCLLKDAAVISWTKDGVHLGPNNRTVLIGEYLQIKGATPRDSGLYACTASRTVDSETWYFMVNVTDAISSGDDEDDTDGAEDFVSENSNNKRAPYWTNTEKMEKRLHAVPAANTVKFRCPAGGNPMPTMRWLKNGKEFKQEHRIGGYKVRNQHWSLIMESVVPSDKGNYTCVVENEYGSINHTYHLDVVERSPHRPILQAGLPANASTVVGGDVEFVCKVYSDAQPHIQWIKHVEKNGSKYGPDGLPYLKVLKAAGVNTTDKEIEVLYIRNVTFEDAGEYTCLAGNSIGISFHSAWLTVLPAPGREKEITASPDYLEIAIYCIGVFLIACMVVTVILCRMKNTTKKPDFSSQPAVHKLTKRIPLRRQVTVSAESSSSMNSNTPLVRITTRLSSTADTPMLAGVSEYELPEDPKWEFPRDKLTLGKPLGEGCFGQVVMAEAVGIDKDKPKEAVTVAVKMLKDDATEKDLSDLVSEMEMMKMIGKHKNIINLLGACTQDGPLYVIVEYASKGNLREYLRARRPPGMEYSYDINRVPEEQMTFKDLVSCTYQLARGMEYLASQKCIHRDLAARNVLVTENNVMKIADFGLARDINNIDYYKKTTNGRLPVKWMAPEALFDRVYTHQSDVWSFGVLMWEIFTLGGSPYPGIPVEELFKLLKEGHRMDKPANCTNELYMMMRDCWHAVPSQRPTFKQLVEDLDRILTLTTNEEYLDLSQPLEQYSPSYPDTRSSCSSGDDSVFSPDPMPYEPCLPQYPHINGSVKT
How it was run: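 Kinase reaction in 50 mM HEPES pH 7.5 with 6 mM MnCl2, 1 mM DTT, 0.1 mM Na3VO4 and 0.01% Triton-X-100 contained FGFR2 (h) at 150 ng/ml. Biotinylated Flt3 peptide (500 nM) served as substrate with 0.4 μM ATP, compound added in 1% DMSO final.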

T1 sequence (P22607 whole entry, change not shown): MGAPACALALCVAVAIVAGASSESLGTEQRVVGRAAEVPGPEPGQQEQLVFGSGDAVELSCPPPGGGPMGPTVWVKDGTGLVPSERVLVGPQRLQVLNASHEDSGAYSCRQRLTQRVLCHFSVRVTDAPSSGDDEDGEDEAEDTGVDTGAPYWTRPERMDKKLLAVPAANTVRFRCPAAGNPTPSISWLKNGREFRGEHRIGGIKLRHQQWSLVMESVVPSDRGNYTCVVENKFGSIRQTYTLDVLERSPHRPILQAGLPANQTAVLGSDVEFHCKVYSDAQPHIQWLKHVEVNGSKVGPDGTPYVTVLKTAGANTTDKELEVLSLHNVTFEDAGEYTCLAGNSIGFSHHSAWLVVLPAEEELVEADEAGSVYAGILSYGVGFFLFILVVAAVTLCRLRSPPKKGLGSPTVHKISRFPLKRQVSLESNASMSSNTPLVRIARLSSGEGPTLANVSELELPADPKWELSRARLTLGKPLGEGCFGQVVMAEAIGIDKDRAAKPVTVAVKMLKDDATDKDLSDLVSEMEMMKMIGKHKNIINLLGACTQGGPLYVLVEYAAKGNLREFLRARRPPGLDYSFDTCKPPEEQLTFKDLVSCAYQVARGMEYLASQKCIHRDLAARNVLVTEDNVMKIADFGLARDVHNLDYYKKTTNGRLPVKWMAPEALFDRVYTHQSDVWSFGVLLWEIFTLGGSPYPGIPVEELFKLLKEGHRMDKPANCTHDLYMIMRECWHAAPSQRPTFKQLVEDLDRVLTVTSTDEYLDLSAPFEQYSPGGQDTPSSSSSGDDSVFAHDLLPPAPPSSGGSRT

| Structure (SMILES) | BAF3-FGFR3 (MIN IL3) pIC50 [1] | BAF3-FGFR3 (PLUS IL3) pIC50 [2] | BAF3-FGFR1 (MIN IL3) pIC50 [3] | IC50 (FGFR3 (h)) [nM] | BAF3-KDR (MIN IL3) pIC50 [4] | IC50 (FGFR4 (h)) [nM] | BAF3-KDR (PLUS IL3) pIC50 [5] | BAF3-FGFR4 pIC50 [6] | IC50 (KDR (h)) [nM] | IC50 (FGFR1 (h)) [nM] | BAF3-FGFR1 (PLUS IL3) pIC50 [7] | IC50 (FGFR2 (h)) [nM] |
| --- | --- | --- | --- | --- | --- | --- | --- | --- | --- | --- | --- | --- |
| COc1cc(OC)c(F)c(N(Cc2ncc[nH]2)c2ccc3ncc(-c4cnn(C)c4)nc3n2)c1 [23-lactate salt] | ~8.14 | <5 | 8.29 | 0.955 | 6.83 | 1.1 | <5 | 8.13 | 6.61 | 0.501 | <5 | 1.38 |
| COc1cc(OC)c(F)c(N(Cc2ncc[nH]2)c2ccc3ncc(-c4cnn(C)c4)nc3n2)c1 [23-phosphate salt] | ~8.64 | <5 | 8.83 | 1.1 | 7.03 | 0.977 | <5 | 8.15 | 7.94 | 0.468 | <5 | 1.91 |
| COc1cc(OC)cc(N(Cc2ncc[nH]2)c2ccc3ncc(-c4cnn(C)c4)nc3n2)c1 [24-fumarate salt] | ~8.61 | <5 | 8.46 | 0.851 | 6.38 | 1.2 | <5 | 7.85 | 11.7 | 0.631 | <5 | 1.26 |
| COc1cc(OC)cc(N(Cc2ncc[nH]2)c2ccc3ncc(-c4cnn(C)c4)nc3n2)c1 [24-hydrochloric acid salt] | 7.96 | <5 | 8.16 | 1.02 | 5.92 | 1.2 | <5 | 7.77 | 7.24 | 0.776 | <5 | 1.41 |
| COc1cc(OC)cc(N(Cc2ncc[nH]2)c2ccc3ncc(-c4cnn(C)c4)nc3n2)c1 [24-phosphate salt] | 7.74 | <5 | 8.42 | 0.832 | 6.05 | 1.02 | <5 | 7.47 | 14.5 | 0.708 | <5 | 1.23 |
| COc1cc(OC)cc(N(Cc2ncc[nH]2)c2ccc3ncc(-c4cnn(C)c4)nc3n2)c1 [24-sulphate salt] | ~8.15 | <5 | 8.29 | ~0.912 | 6.15 | 0.759 | <5 | 7.57 | 13.2 | 0.55 | <5 | 1.29 |
| COc1cc(OC)c(F)c(N(CC2CCC(=O)N2)c2ccc3ncc(-c4cnn(C)c4)nc3n2)c1F (stereo not drawn) [Compound 48] | ~7.94 | <5 | 8.00 | 1.7 | 6.03 | 2.19 | <5 | 6.89 | 24.5 | 1.26 | <5 | 3.24 |
| COc1cc(OC)c(F)c(N(CC2CCC(=O)N2)c2ccc3ncc(-c4cnn(C)c4)nc3n2)c1 (stereo not drawn) [Compound 52] | 7.10 | <5 | 7.10 | 1.95 | 5.56 | 4.79 | <5 | 6.55 | 25.1 | 2.57 | <5 | 2.69 |
| COc1cc(/N=c2\ccc3ncc(-c4cnn(C)c4)nc3n2CC2CCC(=O)N2)c(F)c(OC)c1 (stereo not drawn) [Compound 53] | 7.54 | <5 | 7.47 | 1.1 | 5.99 | 3.31 | <5 | 6.85 | 12.3 | 1.2 | <5 | 1.62 |
| COc1cc(OC)c(F)c(N(CC(O)COC(C)C)c2ccc3ncc(-c4cnn(C)c4)nc3n2)c1F (stereo not drawn) [Compound 61] | 7.87 | <5 | 7.56 | 3.98 | 6.29 | 4.07 | <5 | 7.56 | 16.6 | 2.24 | <5 | 4.17 |
